Data reported in US20250154127A1, “BICYCLIC HETEROARYL COMPOUNDS AND USES THEREOF” (ETERN BIOPHARMA (SHANGHAI) CO., LTD., priority 2022, published 2025).

How the values were obtained:
[1] = molecular target: TEAD1(210-426) binding to YAP(50-100) (Homo sapiens, UniProt P28347); assay: TR-FRET Assay for TEAD1(210-426) Binding to YAP(50-100); details: His-TEAD 10 nM, YAP-Biotin peptide 50 nM
Summary of the method: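 10 nM His-TEAD1 preincubated 30 min at room temperature with compound (3-fold dilutions, 12 points, 1% DMSO), then 50 nM biotin-YAP peptide added.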

MSTO-211H cells = assay: Proliferation Assay (CellTiter-Glo Luminescent Cell Viability Assay); type: cell-based; details: Homo sapiens, 96 hours treatment
Summary of the method: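 MSTO-211H cells, 1,500/well in RPMI 1640 with 10% FBS, plated overnight, then treated 96 h with 9-point 3-fold compound series in duplicate (DMSO below 0.5%). Viability by CellTiter-Glo luminescence; inhibition relative to DMSO wells, IC50 by four-parameter fit.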

Chain of TEAD1(210-426) binding to YAP(50-100) (P28347 209-426): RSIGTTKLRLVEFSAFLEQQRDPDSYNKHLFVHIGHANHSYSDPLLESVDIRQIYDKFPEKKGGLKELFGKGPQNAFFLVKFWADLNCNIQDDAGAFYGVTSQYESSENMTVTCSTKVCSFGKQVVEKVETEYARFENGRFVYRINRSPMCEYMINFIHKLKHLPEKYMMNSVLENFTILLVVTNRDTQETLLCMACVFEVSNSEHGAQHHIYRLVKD

IC50 [1] | SMILES | IC50 (MSTO-211H cells)
≤ 100 nM | O=c1cc(-n2nc(-c3ccc(C(F)(F)F)cc3)c3c(F)cccc32)ccn1Cc1ccnc(OCCO)n1 [Compound 136, 4-(4-fluoro-3-(4-(trifluoromethyl)phenyl)-1H-indazol-1-yl)-1-((2-(2-hydroxyethoxy)pyrimidin-4-yl)methyl)pyridin-2(1H)-one] | ≤ 1000 nM
≤ 100 nM | O=c1cc(-c2nn(-c3ccc(C(F)(F)F)cc3)c3ccccc23)ccn1Cc1nccc(OCCO)n1 [Compound 81, 1-((4-(2-hydroxyethoxy)pyrimidin-2-yl)methyl)-4-(1-(4-(trifluoromethyl)phenyl)-1H-indazol-3-yl)pyridin-2(1H)-one] | ≤ 1000 nM
100 to 1000 nM | CN(CCO)c1nccc(Cn2ccc(-c3nn(-c4ccc(C(F)(F)F)cc4)c4c(F)cccc34)cc2=O)n1 [Compound 138, 4-(7-fluoro-1-(4-(trifluoromethyl)phenyl)-1H-indazol-3-yl)-1-((2-((2-hydroxyethyl)(methyl)amino)pyrimidin-4-yl)methyl)pyridin-2(1H)-one] | ≤ 1000 nM
≤ 100 nM | O=c1cc(-c2nn(-c3ccc(C(F)(F)F)cc3)c3ccccc23)ccn1Cc1ccccn1 [Compound 12, 1-(pyridin-2-ylmethyl)-4-(1-(4-(trifluoromethyl)phenyl)-1H-indazol-3-yl)pyridin-2 (1H)-one] | 1000 to 10000 nM
100 to 1000 nM | C[C@@H](c1ccccn1)n1ccc(-c2nn(-c3ccc(F)cc3)c3cccnc23)cc1=O [Compound 4, (S)-4-(1-(4-fluorophenyl)-1H-pyrazolo[4,3-b]pyridin-3-yl)-1-(1-(pyridin-2-yl)ethyl)pyridin-2(1H)-one] | 1000 to 10000 nM
≤ 100 nM | CNc1ccnc(Cn2ccc(-c3nn(-c4ccc(C(F)(F)F)cc4)c4ncccc34)cc2=O)n1 [Compound 70, 1-((4-(methylamino)pyrimidin-2-yl)methyl)-4-(1-(4-(trifluoromethyl)phenyl)-1H-pyrazolo[3,4-b]pyridin-3-yl)pyridin-2(1H)-one] | ≤ 1000 nM
≤ 100 nM | O=c1cc(-c2nc(-c3ccc(C(F)(F)F)cc3)n3ccccc23)ccn1Cc1ccnc(OCCO)n1 [Compound 132, 1-((2-(2-hydroxyethoxy)pyrimidin-4-yl)methyl)-4-(3-(4-(trifluoromethyl)phenyl)imidazo[1,5-a]pyridin-1-yl)pyridin-2(1H)-one] | ≤ 1000 nM
≤ 100 nM | CNc1nccc(Cn2ccc(-c3nn(-c4ccc(C(F)(F)F)cc4)c4ncccc34)cc2=O)n1 [Compound 97, 1-((2-(methylamino)pyrimidin-4-yl)methyl)-4-(1-(4-(trifluoromethyl)phenyl)-1H-pyrazolo[3,4-b]pyridin-3-yl)pyridin-2(1H)-one] | ≤ 1000 nM
≤ 100 nM | CNc1nccc(Cn2ccc(-n3nc(-c4ccc(C(F)(F)F)cc4)c4c(F)cccc43)cc2=O)n1 [Compound 135, 4-(4-fluoro-3-(4-(trifluoromethyl)phenyl)-1H-indazol-1-yl)-1-((2-(methylamino)pyrimidin-4-yl)methyl)pyridin-2(1H)-one] | ≤ 1000 nM
≤ 100 nM | CNc1nccc(Cn2ccc(-c3nn(-c4ccc(OC(F)(F)F)cc4)c4c(F)cccc34)cc2=O)n1 [Compound 145, 4-(7-fluoro-1-(4-(trifluoromethoxy)phenyl)-1H-indazol-3-yl)-1-((2-(methylamino)pyrimidin-4-yl)methyl)pyridin-2(1H)-one] | ≤ 1000 nM
≤ 100 nM | C[C@@H](c1ccccn1)n1ccc(-c2nn(-c3ccc(Cl)cc3)c3cccnc23)cc1=O [Compound 5, (S)-4-(1-(4-chlorophenyl)-1H-pyrazolo[4,3-b]pyridin-3-yl)-1-(1-(pyridin-2-yl)ethyl)pyridin-2(1H)-one] | 1000 to 10000 nM
≤ 100 nM | O=c1cc(-c2nn(-c3ccc(C(F)(F)F)cc3)c3ccccc23)ccn1Cc1ccnc(N2CC(O)C2)n1 [Compound 95, 1-((2-(3-hydroxyazetidin-1-yl)pyrimidin-4-yl)methyl)-4-(1-(4-(trifluoromethyl)phenyl)-1H-indazol-3-yl)pyridin-2(1H)-one] | ≤ 1000 nM
≤ 100 nM | CNc1nccc(Cn2ccc(-n3nc(-c4ccc(C(F)(F)F)cc4)c4ncccc43)cc2=O)n1 [Compound 42, 1-((2-(methylamino)pyrimidin-4-yl)methyl)-4-(3-(4-(trifluoromethyl)phenyl)-1H-pyrazolo[4,3-b]pyridin-1-yl)pyridin-2(1H)-one] | ≤ 1000 nM
≤ 100 nM | CN(CCO)c1nccc(Cn2ccc(-n3nc(-c4ccc(C(F)(F)F)cc4)c4ncccc43)cc2=O)n1 [Compound 47, 1-((2-((2-hydroxyethyl)(methyl)amino)pyrimidin-4-yl)methyl)-4-(3-(4-(trifluoromethyl)phenyl)-1H-pyrazolo[4,3-b]pyridin-1-yl)pyridin-2(1H)-one] | ≤ 1000 nM
≤ 100 nM | CN(C)c1nccc(Cn2ccc(-c3nn(-c4ccc(C(F)(F)F)cc4)c4ccccc34)cc2=O)n1 [Compound 66, 1-((2-(dimethylamino)pyrimidin-4-yl)methyl)-4-(1-(4-(trifluoromethyl)phenyl)-1H-indazol-3-yl)pyridin-2(1H)-one] | ≤ 1000 nM
≤ 100 nM | O=c1cc(-c2nn(-c3ccc(C(F)(F)F)cc3)c3c(Cl)cccc23)ccn1Cc1ccnc(NCCO)n1 [Compound 148, 4-(7-chloro-1-(4-(trifluoromethyl)phenyl)-1H-indazol-3-yl)-1-((2-((2hydroxyethyl)amino)pyrimidin-4-yl)methyl)pyridin-2(1H)-one] | ≤ 1000 nM
≤ 100 nM | Nc1nccc(Cn2ccc(-n3nc(-c4ccc(C(F)(F)F)cc4)c4ncccc43)cc2=O)n1 [Compound 118, 1-((2-aminopyrimidin-4-yl)methyl)-4-(3-(4-(trifluoromethyl)phenyl)-1H-pyrazolo[4,3-b]pyridin-1-yl)pyridin-2(1H)-one] | ≤ 1000 nM
≤ 100 nM | O=c1cc(-c2nn(-c3ccc(C(F)(F)F)cc3)c3c(F)cccc23)ccn1Cc1ccnc(OCCO)n1 [Compound 133, 4-(7-fluoro-1-(4-(trifluoromethyl)phenyl)-1H-indazol-3-yl)-1-((2-(2-hydroxyethoxy)pyrimidin-4-yl)methyl)pyridin-2(1H)-one] | ≤ 1000 nM
≤ 100 nM | CNc1nccc(Cn2ccc(-c3nn(-c4ccc(C(F)(F)F)cc4)c4nccnc34)cc2=O)n1 [Compound 99, 1-((2-(methylamino)pyrimidin-4-yl)methyl)-4-(1-(4-(trifluoromethyl)phenyl)-1H-pyrazolo[3,4-b]pyrazin-3-yl)pyridin-2(1H)-one] | ≤ 1000 nM
≤ 100 nM | O=c1cc(-c2nn(-c3ccc(C(F)(F)F)cc3)c3ncccc23)ccn1Cc1ccnc(NCCO)n1 [Compound 73, 1-((2-((2-hydroxyethyl)amino)pyrimidin-4-yl)methyl)-4-(1-(4-(trifluoromethyl)phenyl)-1H-pyrazolo[3,4-b]pyridin-3-yl)pyridin-2(1H)-one] | ≤ 1000 nM
≤ 100 nM | COCCNc1ccnc(Cn2ccc(-c3nn(-c4ccc(C(F)(F)F)cc4)c4ncccc34)cc2=O)n1 [Compound 76, 1-((4-((2-methoxyethyl)amino)pyrimidin-2-yl)methyl)-4-(1-(4-(trifluoromethyl)phenyl)-1H-pyrazolo[3,4-b]pyridin-3-yl)pyridin-2(1H)-one] | ≤ 1000 nM
